From ChEMBL document CHEMBL1201862, “PubChem BioAssay data set” (2004)
Where “and” joins values, the source holds several entries; their conditions need not be identical. Identical values can stand only once. Calls of active or inactive are those of the source.

Columns and labels:
[1] = Vero cell cytotoxicity, dose response, cytotoxicity control for Vif-APOBEC3G degradation inhibitor project, Vero cells (AID 1117358); type: functional; settings: Human immunodeficiency virus 1, Vero
[2] = target: Dual specificity tyrosine-phosphorylation-regulated kinase 1A (Rattus norvegicus, UniProt Q63470); type: biochemical, Homo sapiens
[3] = target: Dual specificity protein kinase CLK1 (Homo sapiens, UniProt P49759); experiment: CLK1 kinase inhibitors, off-target check, dose response, selectivity assay for Dyrk1A inhibitor project, biochemical, cherry-picked samples (AID 588811)
Beta-arrestin-1 = Beta-arrestin-1 (Homo sapiens, UniProt P49407); experiment: inhibitors of arrestin peptide binding to AP2, dose response, biochemical, cherry pick 1, beta2-adaptin appendage, flow cytometry (AID 588783); type: functional
[4] = target: T1, Apoptotic protease-activating factor 1 (Homo sapiens, UniProt O14727); type: functional
T1 sequence (O14727 whole entry): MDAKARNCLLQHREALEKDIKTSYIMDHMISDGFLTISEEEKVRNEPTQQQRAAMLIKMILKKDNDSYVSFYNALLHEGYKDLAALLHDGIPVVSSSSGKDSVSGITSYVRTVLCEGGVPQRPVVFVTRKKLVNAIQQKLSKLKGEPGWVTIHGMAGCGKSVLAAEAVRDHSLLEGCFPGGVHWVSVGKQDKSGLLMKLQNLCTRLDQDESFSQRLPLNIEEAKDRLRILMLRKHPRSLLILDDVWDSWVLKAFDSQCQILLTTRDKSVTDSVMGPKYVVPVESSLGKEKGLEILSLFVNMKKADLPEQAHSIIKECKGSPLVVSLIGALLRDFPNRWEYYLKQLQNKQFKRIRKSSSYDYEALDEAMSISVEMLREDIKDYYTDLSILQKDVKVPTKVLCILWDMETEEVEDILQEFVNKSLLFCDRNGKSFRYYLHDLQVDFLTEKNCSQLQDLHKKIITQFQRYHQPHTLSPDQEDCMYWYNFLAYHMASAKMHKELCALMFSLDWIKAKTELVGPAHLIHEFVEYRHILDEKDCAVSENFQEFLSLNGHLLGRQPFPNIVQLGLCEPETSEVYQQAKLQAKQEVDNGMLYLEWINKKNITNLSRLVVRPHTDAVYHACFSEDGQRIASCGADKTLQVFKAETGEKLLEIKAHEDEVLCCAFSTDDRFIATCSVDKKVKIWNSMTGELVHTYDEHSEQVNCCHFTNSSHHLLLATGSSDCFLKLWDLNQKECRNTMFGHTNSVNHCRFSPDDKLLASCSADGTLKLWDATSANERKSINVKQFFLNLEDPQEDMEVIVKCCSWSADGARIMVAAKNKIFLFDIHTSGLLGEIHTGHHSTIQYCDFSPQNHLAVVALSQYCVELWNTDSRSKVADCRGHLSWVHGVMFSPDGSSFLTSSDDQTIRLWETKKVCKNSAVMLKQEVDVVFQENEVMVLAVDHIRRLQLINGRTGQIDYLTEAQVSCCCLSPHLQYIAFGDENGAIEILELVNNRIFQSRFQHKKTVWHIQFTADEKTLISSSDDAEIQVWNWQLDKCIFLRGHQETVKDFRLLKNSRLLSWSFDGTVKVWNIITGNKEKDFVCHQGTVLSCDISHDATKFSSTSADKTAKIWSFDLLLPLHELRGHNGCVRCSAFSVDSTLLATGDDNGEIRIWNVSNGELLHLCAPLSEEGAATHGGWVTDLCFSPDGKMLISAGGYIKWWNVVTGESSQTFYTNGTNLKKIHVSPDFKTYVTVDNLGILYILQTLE

[5] = target: Long-chain-fatty-acid--AMP ligase FadD28 (Mycobacterium tuberculosis, UniProt P9WQ59); experiment: Fluorescence polarization aasay to screen for inhibitors that compete for the binding of FadD28 to a bisubstrate Measured in Biochemical System Using Plate Reader - 2147-01_Inhibitor_Dose_CherryPick_Activity.; type: functional, Mycobacterium tuberculosis H37Rv
[6] = target: T2, Zinc finger protein mex-5 (Caenorhabditis elegans, UniProt Q9XUB2); experiment: MEX-5/TCR-2 RNA interaction inhibitors, dose response, biochemical, C. elegans, fluorescence polarization (AID 1960)
T2 sequence (Q9XUB2 whole entry): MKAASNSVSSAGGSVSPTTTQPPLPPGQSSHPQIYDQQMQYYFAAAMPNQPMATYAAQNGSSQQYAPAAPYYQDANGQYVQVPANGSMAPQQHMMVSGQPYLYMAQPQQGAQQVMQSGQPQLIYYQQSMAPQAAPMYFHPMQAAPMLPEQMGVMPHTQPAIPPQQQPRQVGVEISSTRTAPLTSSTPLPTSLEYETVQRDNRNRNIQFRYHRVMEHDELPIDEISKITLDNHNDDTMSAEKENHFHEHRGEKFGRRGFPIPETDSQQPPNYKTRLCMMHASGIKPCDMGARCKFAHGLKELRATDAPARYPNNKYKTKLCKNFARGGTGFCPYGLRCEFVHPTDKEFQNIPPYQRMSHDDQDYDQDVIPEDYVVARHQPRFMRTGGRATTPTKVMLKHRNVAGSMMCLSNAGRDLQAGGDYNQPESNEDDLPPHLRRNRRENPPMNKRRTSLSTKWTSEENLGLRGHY

[7] = target: T3, RNA-binding protein pos-1 (Caenorhabditis elegans, UniProt G5EF15); experiment: inhibitors of POS-1/mex-3 RNA binding, dose response, biochemical, fluorescence polarization (AID 1964);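 also: purified POS-1 fused to maltose binding protein made in E. coli; potency of compounds blocking POS-1 binding to fluorescent RNA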
T3 sequence (G5EF15 whole entry): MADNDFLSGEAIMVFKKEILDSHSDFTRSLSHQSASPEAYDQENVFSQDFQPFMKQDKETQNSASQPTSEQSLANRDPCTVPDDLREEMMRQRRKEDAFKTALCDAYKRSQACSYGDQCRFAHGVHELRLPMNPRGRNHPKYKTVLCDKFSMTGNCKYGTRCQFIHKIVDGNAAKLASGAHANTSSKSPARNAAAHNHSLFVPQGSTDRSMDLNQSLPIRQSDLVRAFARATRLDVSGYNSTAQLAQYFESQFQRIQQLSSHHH

[8] = target: Delta-type opioid receptor (Homo sapiens, UniProt P41143); experiment: Counterscreen for agonists of heterodimerization of the mu 1 (OPRM1) and delta 1 (OPRD1) opioid receptors: Luminescence-based cell-based high throughput dose response assay to identify agonists of OPRD1 homodimerization. [Related pubchem assays (depositor defined):AID504326, AID504355, AID504692, AID504904, AID504905]; type: functional
[9] = target: 5-hydroxytryptamine receptor 5A (Homo sapiens, UniProt P47898); experiment: Counterscreen for agonists of OPRM1-OPRD1 heterodimerization: luminescence-based cell-based high throughput dose response assay to identify agonists of 5-hydroxytryptamine (serotonin) 5A receptor (HTR5A). [Related pubchem assays (depositor defined):AID504326, AID504355, AID504692, AID504904, AID504905]; type: functional
Mu-type opioid receptor = Mu-type opioid receptor (Homo sapiens, UniProt P35372); experiment: Counterscreen for agonists of heterodimerization of the mu 1 (OPRM1) and delta 1 (OPRD1) opioid receptors: Luminescence-based cell-based high throughput dose response assay to identify agonists of OPRM1 homodimerization.; type: functional;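 also: U2OS cells expressing OPRM1 and beta-arrestin as split beta-galactosidase partners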
[10] = target: Opioid receptors; mu & delta (Homo sapiens, UniProt P41143+P35372); experiment: agonists of MOR-DOR heterodimerization, dose response, cell-based, luminescence (AID 588407); type: functional
HEK293 [11] = experiment: cytotoxicity in HEK293T NF-kB-Luc cells, SAR follow-up, cytotoxicity control for NF-kB activator project, cell-based, resazurin fluorescence (AID 493251); type: functional; settings: Homo sapiens
[12] = cytotoxicity in HEK-293T cells, dose response, cytotoxicity control for BCR NF-kB inhibitor project, luminescence, B-cell screen hits (AID 489021); type: functional, cell-based;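 also: HEK-293T cells carrying an NF-kB luciferase reporter; cells exposed to compound for about 14 hours before viability readout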
HEK293 [13] = experiment: SAR Analysis of small molecule inhibitors of T-cell specific antigen receptor-induced NF-kB activation in a HEK-293T cell line using a luminescence assay - Set 2. [Related pubchem assays (depositor defined):AID435003, AID435012, AID489026]; type: functional, cell-based; settings: Homo sapiens
Jurkat = experiment: SAR Analysis of small molecule inhibitors of T-cell specific antigen receptor-induced NF-kB activation in a Jurkat cell line using a luminescence assay - Set 2. [Related pubchem assays (depositor defined):AID435003, AID435012, AID465]; type: functional, cell-based; settings: Homo sapiens
Escherichia coli = experiment: microbe, parasite or virus in culture
Hexokinase HKDC1 = target: T4, Hexokinase HKDC1 (Homo sapiens, UniProt Q2TB90); experiment: SAR analysis of small molecule inhibitors of hexokinase domain containing I (HKDC1). [Related pubchem assays (depositor defined):AID493160, AID493190]; type: functional
T4 sequence (Q2TB90 whole entry): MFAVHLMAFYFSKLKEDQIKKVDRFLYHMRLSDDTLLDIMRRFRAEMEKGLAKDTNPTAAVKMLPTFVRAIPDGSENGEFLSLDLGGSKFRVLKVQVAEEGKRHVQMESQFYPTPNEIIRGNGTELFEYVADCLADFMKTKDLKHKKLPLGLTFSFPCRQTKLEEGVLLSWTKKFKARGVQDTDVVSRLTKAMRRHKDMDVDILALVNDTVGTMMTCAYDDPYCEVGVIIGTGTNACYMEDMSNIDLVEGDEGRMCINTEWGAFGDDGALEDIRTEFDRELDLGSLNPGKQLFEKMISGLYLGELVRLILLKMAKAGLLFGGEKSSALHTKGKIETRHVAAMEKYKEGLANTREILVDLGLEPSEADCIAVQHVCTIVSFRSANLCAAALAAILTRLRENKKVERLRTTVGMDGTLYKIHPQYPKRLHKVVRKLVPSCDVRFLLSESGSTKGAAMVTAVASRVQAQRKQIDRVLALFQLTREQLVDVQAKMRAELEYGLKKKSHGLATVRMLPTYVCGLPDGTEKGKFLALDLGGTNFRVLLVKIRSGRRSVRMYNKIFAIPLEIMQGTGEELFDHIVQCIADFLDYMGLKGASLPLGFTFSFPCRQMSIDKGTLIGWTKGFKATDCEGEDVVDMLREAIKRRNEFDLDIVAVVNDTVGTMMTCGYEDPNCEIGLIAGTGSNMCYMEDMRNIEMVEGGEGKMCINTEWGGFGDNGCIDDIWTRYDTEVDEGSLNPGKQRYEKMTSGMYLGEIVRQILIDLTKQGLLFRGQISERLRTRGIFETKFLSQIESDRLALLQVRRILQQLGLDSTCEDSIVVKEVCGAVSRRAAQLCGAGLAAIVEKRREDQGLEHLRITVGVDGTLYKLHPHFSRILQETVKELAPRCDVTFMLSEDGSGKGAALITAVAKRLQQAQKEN

Hexokinase-1 = Hexokinase-1 (Homo sapiens, UniProt P19367); experiment: SAR analysis of small molecule inhibitors of hexokinase domain containing I (HKDC1) in the hexokinase 1 selectivity assay. [Related pubchem assays (depositor defined):AID493160, AID493190]; type: functional
[14] = target: Glycogen synthase kinase-3 beta (Homo sapiens, UniProt P49841); experiment: Inhibition of Human GSK-3 beta Activity Measured in Biochemical System Using Microfluidics - 2063-05_Inhibitor_Dose_DryPowder_Activity. [Related pubchem assays (depositor defined):AID2709]
[15] = target: Glycogen synthase kinase-3 alpha (Homo sapiens, UniProt P49840); experiment: Inhibition of Human GSK-3 alpha Activity Measured in Biochemical System Using Microfluidics - 2063-06_Inhibitor_Dose_DryPowder_Activity. [Related pubchem assays (depositor defined):AID2709]
[16] = target: Beta-2 adrenergic receptor (Homo sapiens, UniProt P07550); experiment: beta2AR agonists driving receptor internalization, dose response, cell-based, FAP fluorogen, flow cytometry, cherry pick 1 (AID 588763); type: functional
Sequence of Beta-2 adrenergic receptor (P07550 whole entry): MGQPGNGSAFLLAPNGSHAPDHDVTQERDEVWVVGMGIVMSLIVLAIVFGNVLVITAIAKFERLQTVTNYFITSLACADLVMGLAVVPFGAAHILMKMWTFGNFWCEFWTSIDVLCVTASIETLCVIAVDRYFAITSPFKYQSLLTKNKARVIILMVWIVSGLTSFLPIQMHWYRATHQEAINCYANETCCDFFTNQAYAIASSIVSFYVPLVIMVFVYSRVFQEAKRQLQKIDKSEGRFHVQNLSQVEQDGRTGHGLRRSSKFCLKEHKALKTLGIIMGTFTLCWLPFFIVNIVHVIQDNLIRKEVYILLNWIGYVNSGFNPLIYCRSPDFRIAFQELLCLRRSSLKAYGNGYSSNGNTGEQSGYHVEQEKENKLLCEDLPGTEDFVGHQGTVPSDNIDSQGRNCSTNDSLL

Sequence of Long-chain-fatty-acid--AMP ligase FadD28 (P9WQ59 whole entry): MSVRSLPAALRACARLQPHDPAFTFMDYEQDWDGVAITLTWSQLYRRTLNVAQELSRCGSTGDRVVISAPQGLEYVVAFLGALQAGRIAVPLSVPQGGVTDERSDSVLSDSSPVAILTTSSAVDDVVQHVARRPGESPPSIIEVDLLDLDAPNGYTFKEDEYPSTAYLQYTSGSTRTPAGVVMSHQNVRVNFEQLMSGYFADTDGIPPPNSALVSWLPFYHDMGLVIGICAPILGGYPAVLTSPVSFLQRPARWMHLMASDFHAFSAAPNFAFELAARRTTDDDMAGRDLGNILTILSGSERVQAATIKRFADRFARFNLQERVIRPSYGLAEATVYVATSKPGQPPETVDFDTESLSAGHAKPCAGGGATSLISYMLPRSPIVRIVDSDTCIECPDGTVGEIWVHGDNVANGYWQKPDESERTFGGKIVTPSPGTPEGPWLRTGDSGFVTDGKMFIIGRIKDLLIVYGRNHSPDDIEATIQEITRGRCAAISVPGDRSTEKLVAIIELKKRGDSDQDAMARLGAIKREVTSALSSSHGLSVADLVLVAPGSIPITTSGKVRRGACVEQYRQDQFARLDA
Sequence of Glycogen synthase kinase-3 beta (P49841 whole entry): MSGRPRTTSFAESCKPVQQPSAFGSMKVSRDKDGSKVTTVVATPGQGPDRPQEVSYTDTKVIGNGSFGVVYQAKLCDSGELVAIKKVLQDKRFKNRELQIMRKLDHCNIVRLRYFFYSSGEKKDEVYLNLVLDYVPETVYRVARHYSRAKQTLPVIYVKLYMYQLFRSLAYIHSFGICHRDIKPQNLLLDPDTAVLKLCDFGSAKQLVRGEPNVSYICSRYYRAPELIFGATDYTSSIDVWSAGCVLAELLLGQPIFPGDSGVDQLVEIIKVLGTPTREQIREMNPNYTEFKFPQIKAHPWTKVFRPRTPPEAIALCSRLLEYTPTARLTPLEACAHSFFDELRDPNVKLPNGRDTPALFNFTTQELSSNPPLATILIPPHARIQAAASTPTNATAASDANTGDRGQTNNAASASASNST
Sequence of Mu-type opioid receptor (P35372 whole entry): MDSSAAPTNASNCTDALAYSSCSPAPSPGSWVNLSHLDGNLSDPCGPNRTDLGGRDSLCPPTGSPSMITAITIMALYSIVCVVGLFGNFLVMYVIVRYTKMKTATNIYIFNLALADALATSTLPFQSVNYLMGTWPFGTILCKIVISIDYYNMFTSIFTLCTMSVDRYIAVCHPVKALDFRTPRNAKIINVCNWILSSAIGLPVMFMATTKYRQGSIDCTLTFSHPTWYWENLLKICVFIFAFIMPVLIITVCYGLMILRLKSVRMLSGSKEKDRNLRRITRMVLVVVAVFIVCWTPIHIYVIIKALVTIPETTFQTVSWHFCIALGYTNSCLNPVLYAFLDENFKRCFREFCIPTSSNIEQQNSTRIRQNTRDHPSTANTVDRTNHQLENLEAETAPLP
Sequence of Delta-type opioid receptor (P41143 whole entry): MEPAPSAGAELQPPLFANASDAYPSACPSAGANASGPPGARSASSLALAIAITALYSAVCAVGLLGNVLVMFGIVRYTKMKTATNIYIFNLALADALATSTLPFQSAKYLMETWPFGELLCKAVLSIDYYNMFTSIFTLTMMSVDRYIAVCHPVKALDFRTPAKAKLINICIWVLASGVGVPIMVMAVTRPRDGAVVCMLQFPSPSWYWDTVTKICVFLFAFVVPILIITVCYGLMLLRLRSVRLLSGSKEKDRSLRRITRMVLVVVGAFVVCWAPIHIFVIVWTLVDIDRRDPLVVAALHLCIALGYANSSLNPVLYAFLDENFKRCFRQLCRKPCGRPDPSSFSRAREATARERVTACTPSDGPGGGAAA
Sequence of Beta-arrestin-1 (P49407 whole entry): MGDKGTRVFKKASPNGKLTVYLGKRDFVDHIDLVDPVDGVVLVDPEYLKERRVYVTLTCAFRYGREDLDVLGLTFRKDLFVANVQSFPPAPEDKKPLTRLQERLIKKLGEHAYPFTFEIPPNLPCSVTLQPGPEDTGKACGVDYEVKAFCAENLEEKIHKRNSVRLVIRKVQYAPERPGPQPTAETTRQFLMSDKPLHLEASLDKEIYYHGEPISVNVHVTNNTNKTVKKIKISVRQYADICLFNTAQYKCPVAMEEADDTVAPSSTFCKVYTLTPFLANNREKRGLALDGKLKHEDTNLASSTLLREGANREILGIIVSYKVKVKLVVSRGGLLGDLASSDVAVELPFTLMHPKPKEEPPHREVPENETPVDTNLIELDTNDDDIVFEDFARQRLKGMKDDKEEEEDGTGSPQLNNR
Sequence of 5-hydroxytryptamine receptor 5A (P47898 whole entry): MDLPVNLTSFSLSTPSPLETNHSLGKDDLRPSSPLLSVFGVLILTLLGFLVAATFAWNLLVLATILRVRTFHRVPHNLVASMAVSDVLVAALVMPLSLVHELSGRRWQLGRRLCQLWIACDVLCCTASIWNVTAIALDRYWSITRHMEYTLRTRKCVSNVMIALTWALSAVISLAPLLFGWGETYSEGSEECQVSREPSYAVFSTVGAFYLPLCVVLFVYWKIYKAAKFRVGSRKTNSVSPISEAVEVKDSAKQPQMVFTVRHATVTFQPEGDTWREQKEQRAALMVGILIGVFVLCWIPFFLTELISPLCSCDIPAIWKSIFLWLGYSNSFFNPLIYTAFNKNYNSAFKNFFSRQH
Sequence of Hexokinase-1 (P19367 whole entry, the tested form may be a part): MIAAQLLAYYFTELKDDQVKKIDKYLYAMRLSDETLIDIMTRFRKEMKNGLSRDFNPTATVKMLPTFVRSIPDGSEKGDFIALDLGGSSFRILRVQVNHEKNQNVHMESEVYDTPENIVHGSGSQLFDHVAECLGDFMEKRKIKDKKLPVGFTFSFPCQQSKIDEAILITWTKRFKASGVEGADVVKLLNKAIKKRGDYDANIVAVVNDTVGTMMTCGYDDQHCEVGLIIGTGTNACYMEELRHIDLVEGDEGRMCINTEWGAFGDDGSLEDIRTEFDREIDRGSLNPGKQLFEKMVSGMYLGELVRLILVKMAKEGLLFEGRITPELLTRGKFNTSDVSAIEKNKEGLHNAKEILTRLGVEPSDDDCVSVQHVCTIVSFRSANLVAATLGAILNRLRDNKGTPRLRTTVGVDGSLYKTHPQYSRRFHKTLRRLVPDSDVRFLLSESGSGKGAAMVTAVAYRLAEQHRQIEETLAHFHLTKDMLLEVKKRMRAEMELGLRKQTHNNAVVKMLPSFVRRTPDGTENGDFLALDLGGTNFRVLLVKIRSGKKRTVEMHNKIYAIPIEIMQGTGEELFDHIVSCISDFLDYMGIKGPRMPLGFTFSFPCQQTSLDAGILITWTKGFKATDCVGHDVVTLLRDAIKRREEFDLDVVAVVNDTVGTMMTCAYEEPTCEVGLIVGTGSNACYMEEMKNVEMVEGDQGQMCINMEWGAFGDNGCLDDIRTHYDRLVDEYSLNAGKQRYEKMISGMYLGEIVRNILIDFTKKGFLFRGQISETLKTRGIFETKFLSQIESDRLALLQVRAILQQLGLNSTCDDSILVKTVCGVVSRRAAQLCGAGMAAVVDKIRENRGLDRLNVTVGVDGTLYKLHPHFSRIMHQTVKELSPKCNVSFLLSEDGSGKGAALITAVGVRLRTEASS
Sequence of Glycogen synthase kinase-3 alpha (P49840 whole entry): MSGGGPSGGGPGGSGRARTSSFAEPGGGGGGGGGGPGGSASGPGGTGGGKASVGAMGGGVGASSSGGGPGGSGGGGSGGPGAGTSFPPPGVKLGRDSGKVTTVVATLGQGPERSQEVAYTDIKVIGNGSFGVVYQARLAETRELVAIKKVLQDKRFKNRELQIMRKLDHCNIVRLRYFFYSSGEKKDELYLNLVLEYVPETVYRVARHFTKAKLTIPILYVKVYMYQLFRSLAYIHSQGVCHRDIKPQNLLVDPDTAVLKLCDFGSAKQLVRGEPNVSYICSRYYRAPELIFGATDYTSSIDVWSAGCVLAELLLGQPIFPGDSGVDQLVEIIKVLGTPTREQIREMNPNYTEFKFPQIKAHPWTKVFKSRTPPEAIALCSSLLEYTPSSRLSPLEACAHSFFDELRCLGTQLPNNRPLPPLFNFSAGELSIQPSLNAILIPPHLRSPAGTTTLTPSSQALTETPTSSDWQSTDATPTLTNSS
Sequence of Dual specificity protein kinase CLK1 (P49759 whole entry): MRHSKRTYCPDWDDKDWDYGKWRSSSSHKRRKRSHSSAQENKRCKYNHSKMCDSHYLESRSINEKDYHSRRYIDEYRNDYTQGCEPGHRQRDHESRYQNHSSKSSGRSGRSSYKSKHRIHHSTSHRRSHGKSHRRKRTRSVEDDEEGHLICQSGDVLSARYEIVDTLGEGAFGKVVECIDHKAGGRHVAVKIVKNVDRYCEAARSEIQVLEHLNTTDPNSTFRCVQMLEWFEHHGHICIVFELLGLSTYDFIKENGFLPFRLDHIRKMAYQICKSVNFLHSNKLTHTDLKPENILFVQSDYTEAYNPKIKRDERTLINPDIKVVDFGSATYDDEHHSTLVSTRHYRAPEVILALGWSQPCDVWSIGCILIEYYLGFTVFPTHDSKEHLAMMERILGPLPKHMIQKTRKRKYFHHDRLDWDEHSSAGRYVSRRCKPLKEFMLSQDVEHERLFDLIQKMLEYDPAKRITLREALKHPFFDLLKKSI

CN(C)S(=O)(=O)c1ccc(NC(=O)c2cc3ccccc3o2)cc1
CC50 [1]: > 40 µM (active) | AC50 [2]: 29.9 µM (active) | AC50 [3]: 21.1 µM (active)

Cc1cc2nc3ccc(N(C)C)cc3nc2cc1N
IC50 (Beta-arrestin-1): 8.88 µM (active) | IC50 [4]: 34 µM (active) | AC50 [5]: 33.6 µM (active) | EC50 [6]: 14.3 µM (active) | EC50 [7]: 13 µM (active)

Br.CC1[C@H]2Cc3ccc(O)cc3[C@]1(C)CCN2CCc1ccccc1 (some centres not stated)
EC50 [8]: 0.551 µM (active) | EC50 [9]: > 92.5 µM (inactive) | EC50 (Mu-type opioid receptor): > 10.3 µM (inactive) | EC50 [10]: > 0.01406 µM

COc1cc(-c2nc3n(n2)C(c2ccc(F)cc2)C2=C(O)CCCC2=N3)cc(OC)c1OC (configuration not stated)
IC50 (HEK293 [11]): 39.1 µM (inactive) | IC50 [12]: > 80 µM (inactive) | IC50 (HEK293 [13]): 31.4 µM (inactive) | IC50 (Jurkat): > 79 µM (inactive)

Cc1cc(C)n2nc(SCC(=O)N3CCN(c4ccccc4)CC3)nc2n1
AC50 (Escherichia coli): 106 µM (active)

O=c1c2ccccc2nc(/C=C/c2cccnc2)n1Cc1ccccc1F
IC50 (Hexokinase HKDC1): > 80 µM (inactive) | IC50 (Hexokinase-1): > 80 µM (inactive)

c1cncc(-c2nc(NCCCn3cccc3)c3ccccc3n2)c1
AC50 [14]: 2.97 µM (active) | AC50 [15]: 7.63 µM (active)

CCOC(=O)c1ccc(NC(=O)Cn2nnc(-c3ccc(C)cc3)n2)cc1
EC50 [16]: 158 nM (active) and 839 nM (active)
